“Also recorded” adds a separate entry of the source.
Experiments:
[1] = system: dorsal root ganglion (DRG) cultures; assay: Alamar Blue cellular viability in DRG cultures, reversal of paclitaxel toxicity; format: cell-based, rat
Protocol: (§1) At the conclusion of each experiment, sister cultures to those assessed by image analysis were evaluated with either a fluorescent dye-based assays for neuronal viability (6-carboxyfluorescein diacetate, CFDA) or with viability dye Alamar Blue. The preferred dye was Alamar Blue as this assay of viability could be conducted and then the dye washed off the cultures for subsequent fixation and follow-up immunocytochemical assays. […] In addition, a portion of the reductive conversion of resazurin to the highly fluorescent resorufin in the Alamar Blue reagent is attributable to the action of mitochondrial reductases. Because of the need for enhanced sensitivity, the Alamar Blue assay was predominantly used for these studies. Similar results in assessing pharmacological responses were obtained with both assays (see Brenneman et al, 2019).
On every plate, wells without cells were used to provide a blank reading that was used to subtract background fluorescence. For the Alamar Blue viability assay, 10 ul of the dye was added directly to the culture well that contained 100 ul of nutrient medium (Ivanov et al., 2016). Incubation times with the dye ranged from 1-5 hrs., depending on the experimental goals. Fluorescence was measured at an excitation of 530 nm and an emission of 590 on a Cytofluor plate reader.
Referring to FIG. 1, cellular viability, as measured with the viability dye Alamar Blue, is shown with relative fluorescence units (RFU) in dorsal root ganglion (DRG) cultures after treatment with 3 μM paclitaxel for 8 hours followed by 16 hours treatment with various concentrations of KLS-13019. Reference lines are provided to depict the RFU levels for control cultures (medium dash) and cultures pre-treated only with 3 μM paclitaxel (dash-dot-dash) for eight hours. […] To confirm, all treated cultures were continuously exposed to paclitaxel throughout the 24-hour duration of the experiment. […] Each value is the mean of 6 determinations.

human GPR55 = target: T1, human GPR55 (Homo sapiens, UniProt Q9Y2T6); assay: PathHunter β-arrestin assay, human GPR55 in CHO-K1 cell line; format: cell-based
T1 construct: host or cells: CHO-K1
T1 sequence (Q9Y2T6 whole entry): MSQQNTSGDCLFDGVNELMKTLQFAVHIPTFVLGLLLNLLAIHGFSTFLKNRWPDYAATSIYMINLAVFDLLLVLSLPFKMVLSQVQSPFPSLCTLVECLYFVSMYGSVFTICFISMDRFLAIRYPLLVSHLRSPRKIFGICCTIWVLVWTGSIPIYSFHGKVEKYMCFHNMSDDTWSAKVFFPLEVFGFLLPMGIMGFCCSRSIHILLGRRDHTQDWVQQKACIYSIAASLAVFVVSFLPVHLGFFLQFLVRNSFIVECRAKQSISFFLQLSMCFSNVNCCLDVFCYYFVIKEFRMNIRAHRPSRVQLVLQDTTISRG
Protocol: In this assay, agonist-induced activation of GPR55 stimulates binding of β-arrestin to the Pro-link-tagged GPCR and forces complementation of two enzyme fragments, resulting in the formation of an active β-galactosidase enzyme. This interaction leads to an increase in enzyme activity that can be measured using chemiluminescent PathHunter detection reagents. For our application, the GPR55 agonist lysophosphatidylinositol (LPI) was tested from 0.1 nM to 30 μM to increase the relative luminescent signal relative to that of control. […] For the GPR55 antagonism assay, KLS-13019 concentrations ranging from 0.1 nM to 30 μM were tested in the presence of 16 μM LPI. Concentrations of KLS-13019 ranging from 0.1 nM to 30 μM were tested alone for possible effects of agonistic activity on β-arrestin.
A PathHunter β-arrestin assay is shown in FIG. 8 that provides a measure of an antagonist mode assessment of KLS-13019 with a human GPR55 model system (Eurofins). To measure the β-arrestin response to a GPR55 agonist, various concentrations of lysophosphatidylinositol (LPI) were used as shown in the closed circles. […] Based on these findings, 16 μM LPI was incubated with various concentrations of KLS-13019 to test for antagonistic properties (closed inverted triangles). […] All assays were conducted with an N=10.

interleukin-6 (IL-6) = assay: Interleukin-6 immunoreactive area in cell bodies and neurites of DRG neurons, paclitaxel reversal paradigm; format: cell-based, rat
Protocol: (§2) The GPR55 antibody was obtained from abcam. […] The secondary antibodies were obtained from Life Technologies.
(§3) Referring to FIG. 3, responses of interleukin-6 (IL-6) immunoreactive (IR) areas (μ^2) in cell bodies (open circles) and neurites (closed circles) of rat DRG neurons from dissociated cultures are shown after pretreatment with 3 μM paclitaxel for 8 hours followed by 16 hours treatment with various concentrations of KLS -13019. Reference lines are provided to depict the average cell body IL-6 area (medium dash) and neurites IL-6 (dash-dot-dash) from control cultures. The zero-concentration data point on both curves depicts values for cultures treated only with 3 μM paclitaxel. […] To confirm, all treated cultures were continuously exposed to paclitaxel throughout the 24-hour duration of the experiment. […] Each value is the mean of 8 determinations. […] All assays were conducted by high content fluorescence imaging (Brenneman et al., 2018 and 2019).

NLRP3 = assay: Neuritic NLRP3 immunoreactive spot area in hippocampal neurons, LPIA reversal paradigm; format: cell-based, rat
Text: Tissue was dissociated with a papain-based kit from Worthington Biochemical Corporation (Lakewood, NJ).
To assess all antibody-based assays, immunocytochemical methods were employed. The goals for these assays included: 1) to assess the immunoreactive area of our molecular targets (IL-1β, IL-6, GPR55, NLRPA3) with their respective primary antibodies and distinctively labeled secondary antibodies; and 2) to compare the relative responses in both neuronal cell bodies and neurites. Prior to fixation, growth medium was removed and the wells were rinsed one time with 100 μL of DPBS (37° C.). This warm rinse is particularly important to maintain structural stability of neurites. After removal of the DPBS, cultures were fixed for 20 min at room temperature with 50 μL/well of 3.5% formaldehyde (Sigma-Aldrich: 252549) in warm (37° C.) DPBS that contained 5.5 μg/mL of Hoechst 33342 dye (Invitrogen: H3570) to label cell nuclei. After removal of the fixative, the cultures were rinsed twice with 100 μL of DPBS and then a permeabilization/blocking buffer containing 5% normal goat serum and 0.3% triton-X100 in DPBS was added to the cultures for 10 min. After removal of the blocking buffer, the cultures were rinsed twice with 100 μL of DPBS and then primary antibodies were added for one-hour incubation at room temperature. Neurons were identified with antiserum to type III beta tubulin (tuj 1) to measure changes in all neuronal parameters. The primary antiserum employed was rabbit anti-rat obtained from Sigma-Aldrich (T2200) and used at 1:200 dilution. The secondary was an Alexa Fluor 488-conjugated Fab fragment of goat anti-rabbit IgG obtained from Life Technologies (A11070) used at 1:600.

GPR55 [2] = assay: Neuritic GPR55 immunoreactive area in DRG cultures, 6 h co-treatment with LPIA; format: cell-based, rat
Text: Because of the recognized importance of sensory neurons in DRG to transmitting peripheral nociception (Krames, 2014) and the reported accumulation of paclitaxel in DRG from models of CIPN (Duggett et al., 2016), the preparation of choice for the in vitro studies to study protection and anti-inflammation was dissociated cultures from rat DRG. DRG cultures derived from embryonic day 18 rats were employed as the primary assay system to study KLS-13019-properties. In brief, DRG were obtained commercially through Brain Bits (Springfield, IL) and cultures prepared with slight modifications to methods previously described (Brenneman et al., 2019). Tissue was dissociated with a papain-based kit from Worthington Biochemical Corporation (Lakewood, NJ). The DRG cells were plated at low density (10,000 cells/well) in a 96-well format and maintained in serum-free medium consisting of Neurobasal Medium supplemented with B27, GlutaMAX (Gibco) and 25 ng/ml Nerve Growth Factor. Poly-D-lysine coated plates (BD Biosciences, Franklin Lakes, NJ) were employed for this culture system. Prior to the initiation of experiments between days 5 and 9 in vitro, a complete change of medium was performed in a working volume of 100 μL.
To assess all antibody-based assays, immunocytochemical methods were employed. The goals for these assays included: 1) to assess the immunoreactive area of our molecular targets (IL-1β, IL-6, GPR55, NLRPA3) with their respective primary antibodies and distinctively labeled secondary antibodies; and 2) to compare the relative responses in both neuronal cell bodies and neurites. Prior to fixation, growth medium was removed and the wells were rinsed one time with 100 μL of DPBS (37° C.). This warm rinse is particularly important to maintain structural stability of neurites. After removal of the DPBS, cultures were fixed for 20 min at room temperature with 50 μL/well of 3.5% formaldehyde (Sigma-Aldrich: 252549) in warm (37° C.) DPBS that contained 5.5 μg/mL of Hoechst 33342 dye (Invitrogen: H3570) to label cell nuclei. […]

hippocampal cultures = assay: Alamar Blue cellular viability in hippocampal cultures, reversal of LPIA toxicity; format: cell-based, rat
Text: Because the scope of the anti-inflammatory actions of the 1,3-benzene diols included the central nervous system as well, hippocampal cultures were also employed as they express both mNCX-1 and GPR55, the two targets that mediate protection and inflammation, respectively. […] Poly-L-lysine-coated plates (BD Biosciences, Franklin Lakes, NJ) were used because of the preferential adherence and survival of neurons on this matrix support.
as §1, with “Similar results in assessing pharmacological responses were obtained with both assays (see Brenneman et al, 2019).” left out
On every plate, wells without cells were used to provide a blank reading that was used to subtract background fluorescence. […] Fluorescence was measured at an excitation of 530 nm and an emission of 590 on a Cytofluor plate reader. […]

GPR55 [3] = assay: Cell body GPR55 immunoreactive area in DRG neurons, paclitaxel reversal paradigm, high content imaging; format: cell-based, rat
Protocol: as §2
Responses of cell body GPR55 immunoreactive areas (μ^2) of neurons from dorsal root ganglion (DRG) cultures are shown in FIG. 2 after pretreatment with 3 μM paclitaxel for 8 hours followed by 16 hours treatment with various concentrations of KLS-13019. Reference lines are provided to depict the average cell body GPR55 area for control cultures (medium dash) and that of cultures pre-treated only with 3 μM paclitaxel (dash-dot-dash) for eight hours. […] Each value is the mean of 8 determinations. […] All assays were conducted by high content fluorescence imaging (Brenneman et al., 2018 and 2019).

[4] = system: cultures of the central and peripheral nervous system; conditions: Kinney 2016; Brenneman 2018, 2019; US 9,611,213; US 10,004,722; cited from earlier work
interleukin-1β (IL-1β) = assay: Interleukin-1β immunoreactive area in cell bodies and neurites of DRG neurons, paclitaxel reversal paradigm; format: cell-based, rat
Protocol: as §2
as §3, with “Responses” for “Referring to FIG. 3, responses”, “interleukin-1β (IL-1β)” for “interleukin-6 (IL-6)”, “shown in FIG. 4” for “shown”, “pre-treatment” for “pretreatment”, “KLS-13019.” for “KLS -13019.”, “IL-1β” for “IL-6”

[5] = 3 μM paclitaxel 8 h, then 16 h treatment

| Compound | Protection of DRG cells from paclitaxel toxicity (efficacy) ([1]; 3 μM paclitaxel 8 h pre-treatment, then 16 h treatment, relative to control cultures) | EC50 ([1]; Rattus norvegicus, read-out: EC50 in reversing previously established paclitaxel toxicity (Alamar Blue)) | Agonist activity on β-arrestin, compound alone (human GPR55; 0.1 nM to 30 μM tested alone) | Antagonism of LPI-mediated increases in β-arrestin signal (human GPR55; 30 μM KLS-13019 in presence of 16 μM LPI, N=10) | Reversal of paclitaxel-induced increase in IL-6 IR area in cell bodies and neurites (efficacy) (interleukin-6 (IL-6); [5]) | IC50 (interleukin-6 (IL-6); Rattus norvegicus, DRG neuron, read-out: IC50 in reversing previously established increases in IL-6 IR area) | NLRP3 spot areas compared with control cultures (efficacy of reversal) (NLRP3; 1 nM KLS-13019, equimolar to LPIA) | IC50 (NLRP3; Rattus norvegicus, Hippocampal neuron, 4 h, read-out: IC50 of decrease in neuritic NLRP3 area) | IC50 (GPR55 [2]; Rattus norvegicus, 6 h, read-out: IC50 in preventing increases in GPR55 area) | Effect on LPIA-induced increase in neuritic GPR55 (GPR55 [2]; co-treatment with 1 nM LPIA, 6 hours) | Protection of hippocampal cells from LPIA toxicity (efficacy) (hippocampal cultures; 1 nM LPIA 4 h, then 4 h treatment, relative to control cultures) | EC50 (hippocampal cultures; Rattus norvegicus, 4 h, read-out: EC50 in reversing previously established LPIA toxicity (Alamar Blue)) | Reversal of paclitaxel-induced increase in cell body GPR55 area (efficacy) (GPR55 [3]; [5]) | EC50 (GPR55 [3]; Rattus norvegicus, DRG neuron, read-out: EC50 in reversing previously established increases in GPR55 area) | Effect on oxidative stress and nerve cell damage in previous studies [4] | Reversal of paclitaxel-induced increase in IL-1β IR area in cell bodies and neurites (efficacy) (interleukin-1β (IL-1β); [5]) | IC50 (interleukin-1β (IL-1β); Rattus norvegicus, DRG neuron, read-out: IC50 in reversing previously established increases in IL-1β IR area) | Agonist signal in β-arrestin assay (human GPR55; 10 μM LPI) |
| --- | --- | --- | --- | --- | --- | --- | --- | --- | --- | --- | --- | --- | --- | --- | --- | --- | --- | --- |
| C=C(C)[C@@H]1CCC(C)=C[C@H]1c1c(O)cc(CC2CN(C(C)=O)C2)cc1O [KLS-13019, 1-(3-(3,5-dihydroxy-4-((1R,6R)-3-methyl-6-(prop-1-en-2-yl)cyclohex-2-enyl)benzyl)azetidin-1-yl)ethenone] | fully protect | 0.2 nM | no detectible agonist activity; also recorded: no detectible increases in β-arrestin signal | completely blocked | fully returned to the average area of control cultures | 0.3 nM | not different from that of control cultures | 0.129 ± 0.043 nM | 0.107 ± 0.019 nM | blocked | fully protect | 0.4 nM | fully returned to the average area of control cultures | 2.31 nM | prevent oxidative stress and nerve cell damage | fully restored to the average area of control cultures | 0.3 nM |  |
| lysophosphatidylinositol [LPI, reference compound] |  |  |  |  |  |  |  |  |  |  |  |  |  |  |  |  |  | robust and reproducible signal; also recorded: robust agonist signal |
